Experimental findings from ChEMBL document CHEMBL4261569, “Identification of novel N-acetylcysteine derivatives for the treatment of hepatocellular injury” (Medchemcomm, 2017) are described below.

Each structure is given as a SMILES string. Calls of active or inactive are those of the source. The rule behind the calls is not given here.

In data set [1] the test system is L02. Kind of data set: Cytoprotection against H2O2 induced cytotoxicity in human LO2 cells assessed as decrease in MDA level at 100 mmol after 15 mins by lipid oxidation assay. It counts as functional, cell-based.
Data set [2] deals with L02. As to the kind of experiment: Cytoprotection against APAP induced cytotoxicity in human LO2 cells assessed as decrease in MDA level at 100 mmol after 15 mins by lipid oxidation assay. It is filed as functional, cell-based.
A short description of data set [3]: Apparent permeability across apical to basolateral side in human Caco2 cells at 10 uM after 1.5 hrs by LC-MS/MS analysis. The conditions noted are these: Caco-2. It counts as ADME, cell-based. Background: Passage across Caco-2 layers is used to estimate intestinal permeability.
A short description of data set [4]: Apparent permeability across basolateral to apical side in human Caco2 cells at 10 uM after 1.5 hrs by LC-MS/MS analysis. It counts as ADME, cell-based. The conditions noted are these: Caco-2.
Data set [5] in a line: Terminal half life in iv dosed human plasma. It counts as ADME, organism-based. The conditions noted are these: read-out: beta t1/2 (converted).
The nature of data set [6]: Drug excretion in iv dosed human. It is filed as ADME, organism-based. The note with it: in vivo, read-out: Drug excretion.
Data set [7] is described as follows: Oral bioavailability in human. It is filed as ADME, organism-based. The note with it: in vivo.
Data set [8] deals with L02. As to the kind of experiment: Cytoprotection against H2O2 induced cytotoxicity in human LO2 cells assessed as increase in cell viability preincubated for 24 hrs followed by H2O2 addition measured after 6 hrs by CCK-8 assay. It counts as functional, cell-based. For orientation: Formazan colour is commonly taken as a measure of viable cells.
For data set [9], the system named is L02. As to the kind of experiment: Cytotoxicity against human LO2 cells assessed as reduction in cell viability after 24 hrs by CCK-8 assay. The conditions noted are these: l02, 24 h. It is filed as cell-based.
For data set [10], the system named is L02. Kind of data set: Cytoprotection against APAP induced cytotoxicity in human LO2 cells assessed as increase in cell viability preincubated for 24 hrs followed by […] hrs by CCK-8 assay. It is filed as functional, cell-based.
Data set [11] in a line: Efflux ratio of apparent permeability across basolateral to apical side over apical to basolateral side in human Caco2 cells at 10 uM after 1.5 hrs by LC-MS/MS analysis. It counts as ADME, cell-based. The note with it: Caco-2.
The nature of data set [12]: Cmax in Sprague-Dawley rat at 10 mg/kg, iv or 20 mg/kg, po by LC-MS/MS analysis. It counts as ADME, organism-based. The note with it: in vivo.
Data set [13] in a line: Terminal half life in Sprague-Dawley rat at 20 mg/kg, po by LC-MS/MS analysis. It is filed as ADME, organism-based. The conditions noted are these: in vivo, read-out: beta t1/2 (converted).
A short description of data set [14]: AUC in Sprague-Dawley rat at 10 mg/kg, iv or 20 mg/kg, po by LC-MS/MS analysis. It counts as ADME, organism-based. The note with it: in vivo.
The nature of data set [15]: Oral bioavailability in Sprague-Dawley rat at 20 mg/kg by LC-MS/MS analysis. The note with it: in vivo. It is filed as ADME, organism-based.

Consider `CC(=O)N[C@@H](CS)C(=O)O` [ACETYLCYSTEINE], for which the outcome with L02 [1] and with L02 [2] was Active. Besides, the Papp A→B at 1.5 h, 10 µM in [3] is under 1.09 ×10⁻⁶ cm/s. Further, in [4], the Papp B→A at 1.5 h, 10 µM is under 0.61 ×10⁻⁶ cm/s. The half-life in [5] was 5.6 h. Moreover, the dose excreted in [6] turned out to be 30%. This compound also had a bioavailability in data set [7] of under 5%.
As for `CSC[C@H](NC(=O)C1CCCCC1)C(=O)O`, the outcome in the data set with L02 [8] and with L02 [1] was Active.
For the compound `CSC[C@H](NC(=O)c1ccc(F)cc1)C(=O)OC(C)(C)C`, in the data set with L02 [8], the outcome was inactive. The Activity entry in the data set on L02 [9] is reported as “Toxic”.
In the case of `CSC[C@H](NC(=O)c1ccccc1)C(=O)NC1CCCCC1`, the result with L02 [8] was Active.
As to `CSC[C@H](NC(=O)c1ccccc1)C(=O)O`, the outcome in the data set on L02 [8] and in the data set on L02 [1] was Active.
For the compound `CSC[C@H](NC(C)=O)C(=O)Nc1ccccc1`, the outcome with L02 [8], with L02 [1] and in the data set on L02 [2] was Active. The result in the data set with L02 [10] was inactive.
`CSC[C@H](NC(=O)C1CCCCC1)C(=O)OC(C)(C)C`: in the data set with L02 [8], the outcome was inactive. For the same compound, in the data set on L02 [9], the Activity result is “Toxic”.
For the compound `CSC[C@H](NC(C)=O)C(=O)OC(C)(C)C`, the outcome in the data set with L02 [8] was inactive. In the data set with L02 [9], the Activity result was “Toxic”.
Take `CNC(=O)[C@H](CSC)NC(=O)c1ccccc1`: the result in the data set with L02 [8] was Active. For the same compound, the outcome with L02 [1] was inactive.
Consider `CCC(=O)N[C@@H](CSC)C(=O)NC1CCCCC1`, for which the result in the data set on L02 [8], in the data set on L02 [10], in the data set with L02 [1] and in the data set with L02 [2] was Active.
For the compound `CSC[C@H](NC(=O)c1ccccc1)C(=O)Nc1ccccc1`, in the data set on L02 [8], the outcome was Active.
As for `CSC[C@H](NC(=O)c1ccc(F)cc1)C(=O)O`, the result in the data set on L02 [8] and in the data set on L02 [1] was Active.
For the compound `CCC(=O)N[C@@H](CSC)C(=O)O`, the result in the data set with L02 [8] and in the data set on L02 [1] was Active.
Take `CCC(=O)N[C@@H](CSC)C(=O)OC`: the result in the data set with L02 [8] was inactive.
In the case of `CSC[C@H](NC(C)=O)C(=O)O`, the outcome in the data set with L02 [8] and with L02 [1] was Active.
As to `CSC[C@H](NC(=O)c1ccccc1)C(=O)OC(C)(C)C`, the result with L02 [8] was inactive. In addition, the Activity entry in the data set on L02 [9] is on record as “Toxic”.
In the case of `CNC(=O)[C@H](CSC)NC(=O)C1CCCCC1`, the outcome in the data set with L02 [8] and in the data set with L02 [1] was Active.
Regarding `CSC[C@H](NC(C)=O)C(=O)NC1CCCCC1`, the result in the data set with L02 [8], in the data set on L02 [10], in the data set on L02 [1] and in the data set with L02 [2] was Active. Further, the Papp A→B at 1.5 h, 10 µM in data set [3] was determined as 19.7 ×10⁻⁶ cm/s. Also, in [4], the Papp B→A at 1.5 h, 10 µM was 21.8 ×10⁻⁶ cm/s. Also, the efflux ratio at 1.5 h, 10 µM in data set [11] was found to be 1.11. Moreover, the Cmax in data set [12] was found to be 2140 ng/mL. In [13], the half-life is 5.62 h. In data set [14], this compound displayed an AUC of 3080 ng·h/mL. Also, the bioavailability in data set [15] was found to be 52.8%.
Consider `COC(=O)[C@H](CSC)NC(=O)c1ccc(F)cc1`, for which the result with L02 [8] was inactive.
Regarding `CCC(=O)N[C@@H](CSC)C(=O)Nc1ccccc1`, the outcome in the data set with L02 [8] was Active.
As to `CCC(=O)N[C@@H](CSC)C(=O)OC(C)(C)C`, the outcome in the data set on L02 [8] was inactive. The Activity result with L02 [9] was “Toxic”.
Turning to `COC(=O)[C@H](CSC)NC(=O)c1ccccc1`, the outcome in the data set with L02 [8] was inactive.
Still for that read-out and setting: in the case of `CCC(=O)N[C@@H](CSC)C(=O)NC` it was “Active”; in that of `COC(=O)[C@H](CSC)NC(=O)C1CCCCC1`, “inactive”.
Still for that read-out and setting: in the case of `COC(=O)[C@H](CSC)NC(C)=O` it was “inactive”.

One may read the Papp A→B as the apparent permeability from the apical to the basolateral side of a cell layer. As a reminder, the Papp B→A is the apparent permeability from the basolateral to the apical side of a cell layer. By bioavailability is commonly meant dose-corrected exposure relative to a reference, in per cent. A low value points to poor availability. As a reminder, the efflux ratio is a quotient of directional permeabilities that is used to spot active efflux. Usually Cmax stands for the peak of the concentration-time curve. In general, AUC refers to the area under the concentration-time curve, a measure of exposure. Read a low AUC as low exposure.
